Earlier results, collected in patent US10206884B2, “Microcapsules with polymeric coating comprising a lipid and an active agent” (FRESENIUS KABI DEUTSCHLAND GMBH, priority 2013, dated 2019).

CCCC(=O)OCC(COC(=O)CCC)OC(=O)CCC [tributyrin, 1,3-di(butanoyloxy)propan-2-yl butanoate]
solubility in water: only poorly soluble in water
